Here are results for 1 compound from patent US11071727B2, “Therapeutic targeting of proteolytic cleavage of the mixed lineage leukemia gene product (MLL1) by taspase1 using kinase inhibitors” (Northwestern University, priority 2018, dated 2021).

In one series the test system is MLL-AF9 leukemia. As to the kind of experiment: MLL-AF9 syngeneic leukemia mouse model. In kind it is in vivo. Here is the method:
FIG. 7. CKII inhibition delays the leukemia progression and improves survival of MLL-AF9 mice and MOLM13 human leukemia mice. (A) Timeline of the MLL-AF9 leukemia mouse model and CKII inhibitor treatment. Drug treatments were started at day 10 after transplantation. (B) Kaplan-Meier survival curves of secondary transplanted C57BL/6 mice after vehicle and CX-4945 treatment at day 10. Vehicle or CX-4945 (50 mg/kg or 75 mg/kg) were administered twice daily by oral gavage for a total of twenty treatments. Leukemia was confirmed at the endpoint for each transplant mouse. The number (n) indicates the number of mice in each group. The p values were calculated using the log rank test. (C) Timeline of the MOLM13 human leukemia xenograft mice. Drug treatments were started at day 5 after transplantation. (D) Kaplan-Meier survival curves of NSGS mice after vehicle and CX-4945 treatment. Vehicle or CX-4945 (50 mg/kg) were administered twice daily by oral gavage for a total of twenty treatments. Leukemia was confirmed at the endpoint for each transplant mouse by flow cytometry, H&E staining and histology analysis. The number (n) indicates the number of mice in each group. The p value was calculated using the log rank test. (E) Taspase1 cleavage regulation of MLL1 mediated by CKII phosphorylation. MLL1 cleavage by taspase1 primed the protein to degradation pathway. […]

The subject of the next series is MLL1, MLL-AF4. As to the kind of experiment: Western blot of MLL1 full-length and MLL-AF4 fusion protein levels in SEM cells. In kind it is cell-based, human. As to conditions: SEM cells, 0, 5 or 10 μM, 30 hours. Here is the method:
FIG. 6. CKII inhibition increases genome-wide MLL occupancy and excludes SEC recruitment in MLL leukemia cells. (A) and (B) MLL1C occupancy in CX-4945 or TTP22 treated cells were shown relative to DMSO control. […] (C) Track examples of the MLL1 occupancy at the promoter regions of ELF2 and C6orf211. (D) CX-4945 inhibition of leukemia cell proliferation. Multiple MLL leukemia (orange lines) and non-MLL leukemia (blue lines) were cultured with different doses of CX-4945 for 3 days. Cell number was determined by cell counter and normalized to DMSO control. (E) SEM cells were treated with 0, 5 or 10 μM of CX-4945 for 30 hours and western blot was performed to determine the MLL1 full-length protein levels and MLL-AF4 fusion protein levels. (F) MLL-AFF1, AFF4 and ELL2 occupancies were decreased by CX-4945 treatment in SEM cells.
Cell culture. All of the cell lines were purchased from the American Type Culture Collection (Rockville, Md.). 293T, MCF7 and HCT116 cell lines were maintained in Dulbecco's modified Eagle's medium (DMEM) (Gibco, Gaithersburg, Md.) supplemented with 10% fetal bovine serum (FBS) (Gibco) at 37° with 5% CO2. SEM was maintained in IMDM with 10% FBS. MM6 was maintained in RPMI1640 supplemented with 10% FBS and non-essential amino acids. MOLM13, RS4:11, MV4-11, RL, REH, U937m SU-DHL-6 and OCI-LY1 were maintained in RPMI1640 supplemented with 10% FBS. […]
A general note: A western blot detects proteins with antibodies after separation by electrophoresis.

Each structure is given as a SMILES string.

As for `O=C(O)c1ccc2c(c1)nc(Nc1cccc(Cl)c1)c1ccncc12` [CX-4945, 5-(3-chlorophenylamino)benzo[c][2,6]naphthyridine-8-carboxylic acid], the “leukemia progression and survival” value in the series on MLL-AF9 leukemia (C57BL/6 mice, 50 mg/kg or 75 mg/kg twice daily by oral gavage, twenty treatments from day 10) is “significantly delayed the leukemia progression and improved the survival”. Moreover, in the series with MLL-AF9 leukemia (MLL-AF9 syngeneic mouse model, compared with vehicle control group), the “weight of the mice” value is recorded as “did not affect the weight of the mice”. Besides, in the series on MLL1, MLL-AF4, the MLL1-FL protein levels result was “MLL1-FL protein levels also increased” and the MLL-AF4 protein levels result was “without altering MLL-AF4 protein levels”.
